Experimental findings from patent US20240116985A1, “STAPLED PEPTIDES AND METHODS THEREOF” (priority 2020, published 2024) are described below.

Where two headings read alike, the source gives them in different places.

In data set [1] the target is T1, full-length beta-Catenin (Uniprot ID P35222) (Homo sapiens, UniProt P35222).
T1 construct: 10 nM full-length beta-Catenin (Uniprot ID P35222)
T1 sequence (P35222 1-781): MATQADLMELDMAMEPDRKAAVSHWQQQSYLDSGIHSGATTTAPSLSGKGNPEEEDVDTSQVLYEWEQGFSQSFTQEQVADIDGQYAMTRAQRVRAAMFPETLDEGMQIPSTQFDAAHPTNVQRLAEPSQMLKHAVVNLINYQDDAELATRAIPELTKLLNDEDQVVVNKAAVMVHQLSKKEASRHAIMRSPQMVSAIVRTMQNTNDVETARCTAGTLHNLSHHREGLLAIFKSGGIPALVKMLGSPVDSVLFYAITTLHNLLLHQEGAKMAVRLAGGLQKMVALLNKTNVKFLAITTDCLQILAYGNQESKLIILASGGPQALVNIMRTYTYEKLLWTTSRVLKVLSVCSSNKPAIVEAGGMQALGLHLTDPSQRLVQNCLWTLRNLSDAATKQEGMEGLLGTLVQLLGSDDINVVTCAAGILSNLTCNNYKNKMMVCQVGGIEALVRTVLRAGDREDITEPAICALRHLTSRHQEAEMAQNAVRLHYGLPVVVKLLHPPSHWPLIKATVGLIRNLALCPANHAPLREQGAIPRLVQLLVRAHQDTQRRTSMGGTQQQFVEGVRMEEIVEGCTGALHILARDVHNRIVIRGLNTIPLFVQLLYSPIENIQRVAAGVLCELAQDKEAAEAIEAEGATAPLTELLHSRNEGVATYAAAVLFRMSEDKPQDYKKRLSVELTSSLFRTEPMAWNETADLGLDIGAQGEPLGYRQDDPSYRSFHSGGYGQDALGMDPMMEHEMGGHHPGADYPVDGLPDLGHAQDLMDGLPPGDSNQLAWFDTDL
Description: Fluorescence polarization IC50 (beta-catenin / 5FAM-TCF4 10-53 competition). It is filed as binding.

Another data set is described as follows: CHI Log D procedure. It is filed as physicochemical. As to conditions: pH 7.4, CHI Log D.
The target of data set [2] is T2, beta-catenin/TCF4 engagement (Homo sapiens, UniProt P35222).
T2 construct: expressed in transfected cells; host or cells: HEK293
T2 sequence (P35222 1-781): T1 sequence (P35222 1-781)
Briefly: Nano-BRET target engagement assay (B-cat-Halo & TCF4-Luc in HEK293 cells). In kind it is cell-based. The note with it: read-out: NanoBRET Abs IC50. A general note: In BRET a luciferase serves as donor, and the signal depends on an acceptor being close.

With `CC(=O)N1CCC[C@]12CC=CCCCC1(CCCC=CCCCOC(=O)N3CC[C@@](C(=O)N[C@@H](Cc4ccccc4Cl)C(=O)N[C@@H](Cc4csc5ccccc45)C(=O)N[C@@H](CCC(N)=O)C(N)=O)(C3)NC(=O)[C@H](CC(N)=O)NC(=O)[C@H](Cc3ccccc3)NC(=O)[C@H](C)NC(=O)[C@H](CO)NC(=O)[C@H](CN(CC(=O)O)CC(F)(F)F)NC(=O)[C@H](CC(=O)O)NC1=O)NC(=O)[C@H](CC(C)(C)C)NC(=O)[C@H](CC(=O)O)NC2=O` (stereo partly drawn) [I-1009, Ac-PL3-Asp-Npg-B5-Asp-TfeGA-Ser-Ala-Phe-Asn-PyrS2-2C1F-BztA-Gln-NH2], the IC50 in data set [1] (read-out: beta-Catenin FP IC50) was found to be 11 nM; in data set [2] (absolute IC50) it was 33.3 µM. Besides, the chromatographic logD – broadly, lipophilicity estimated from chromatographic retention – in “CHI Log D procedure” was 2.04.
Turning to `CC[C@H](C)[C@@H]1NC(=O)[C@H](CN(CC(=O)O)CC(F)(F)F)NC(=O)[C@H](CC(=O)O)NC(=O)C2(CCCC=CCCCOC(=O)N3CC[C@@](C(=O)N[C@@H](Cc4ccccc4Cl)C(=O)N[C@@H](Cc4csc5ccccc45)C(=O)N[C@@H](CCC(N)=O)C(N)=O)(C3)NC(=O)[C@H](CC(N)=O)NC(=O)[C@H](Cc3ccccc3)NC(=O)[C@H](C)NC1=O)CCCC=CC[C@]1(CCCN1C(C)=O)C(=O)N[C@@H](CC(=O)O)C(=O)N[C@@H](CC(C)(C)C)C(=O)N2` (stereo partly drawn) [I-1010, Ac-PL3-Asp-Npg-B5-Asp-TfeGA-Ile-Ala-Phe-Asn-PyrS2-2C1F-BztA-Gln-NH2], the IC50 in data set [1] (read-out: beta-Catenin FP IC50) came out at 8 nM; in data set [2] (absolute IC50) it was 13.3 µM. Further, the chromatographic logD in “CHI Log D procedure” turned out to be 2.36.
`CC(=O)N1CCC[C@]12CC=CCCCC1(CCCC=CCCCOC(=O)N3CC[C@@](C(=O)N[C@@H](Cc4ccccc4Cl)C(=O)N[C@@H](Cc4csc5ccccc45)C(=O)N[C@@H](C(N)=O)[C@H](C)O)(C3)NC(=O)[C@H](CO)NC(=O)[C@H](Cc3ccccc3)NC(=O)[C@H](C)NC(=O)[C@H](C)NC(=O)[C@H](CCC(=O)O)NC(=O)[C@H](CC(=O)O)NC1=O)NC(=O)[C@H](CC(C)(C)C)NC(=O)[C@H](CC(=O)O)NC2=O` (stereo partly drawn) [I-1036, Ac-PL3-Asp-Npg-B5-Asp-Glu-Ala-Ala-Phe-Ser-PyrS2-2C1F-BztA-dThr-NH2]: the figures for the IC50 in data set [1] (read-out: beta-Catenin FP IC50) and in data set [2] were 29 nM and 16.6 µM, respectively. Further, the chromatographic logD in the data set “CHI Log D procedure” was found to be 2.46.
The corresponding values for `CC(=O)N1CCC[C@]12CC=CCCCC1(CCCC=CCCCOC(=O)N3CC[C@@](C(=O)N[C@@H](Cc4ccccc4Cl)C(=O)N[C@@H](Cc4csc5ccccc45)C(=O)N[C@@H](C(N)=O)[C@H](C)O)(C3)NC(=O)[C@H]([C@@H](C)O)NC(=O)[C@H](Cc3ccccc3)NC(=O)[C@H](C)NC(=O)[C@H](C)NC(=O)[C@H](CCC(=O)O)NC(=O)[C@H](CC(=O)O)NC1=O)NC(=O)[C@H](CC(C)(C)C)NC(=O)[C@H](CC(=O)O)NC2=O` (stereo partly drawn) [I-1037, Ac-PL3-Asp-Npg-B5-Asp-Glu-Ala-Ala-Phe-Thr-PyrS2-2C1F-BztA-dThr-NH2] are 30 nM, 4.4 µM and 2.52.
Turning to `CC(=O)N1CCC[C@]12CC=CCCCC1(CCCC=CCCCOC(=O)N3CC[C@@](C(=O)N[C@@H](Cc4ccccc4Cl)C(=O)N[C@@H](Cc4csc5ccccc45)C(=O)N[C@@H](CCC(N)=O)C(N)=O)(C3)NC(=O)[C@H](CC(C)C)NC(=O)[C@H](Cc3ccccc3)NC(=O)[C@H](C)NC(=O)[C@H](C)NC(=O)[C@H](CC(=O)O)NC(=O)[C@H](CC(=O)O)NC1=O)NC(=O)[C@H](CC(C)(C)C)NC(=O)[C@H](CC(=O)O)NC2=O` (stereo partly drawn) [I-1062, Ac-PL3-Asp-Npg-B5-Asp-Asp-Ala-Ala-Phe-Leu-PyrS2-2C1F-BztA-Gln-NH2], the IC50 in data set [1] (fluorescence polarization, beta-catenin, read-out: FP EC50) was 393 nM; in data set [1] (read-out: beta-Catenin FP IC50) it was 11 nM; in data set [2] it was 4.7 µM. The chromatographic logD in “CHI Log D procedure” is 1.9.
